Values quoted from earlier work as cited in patent US12256762B2, “Sweetener composition and methods of making it” (eBIO Nutritional Sciences LLC, priority 2017, dated 2025).

Details: published partition coefficients

| Compound | Partition Coefficient (log P) |
| --- | --- |
| Cucurbitacin [reference compound] | 3.19 |
| CC/C=C\C/C=C\C/C=C\CCCCCCCC(=O)O [Alpha-Linolenic C18:3] | 6.59 |
| CCCCC/C=C\C/C=C\CCCCCCCC(=O)O [Linoleic C18:2] | 7.06 |

More lines, now with the values ahead:

| Partition Coefficient (log P) | Compound |
| --- | --- |
| 3.18 | C=C1C[C@@]23CC[C@H]4[C@@](C)(CCC[C@@]4(C)C(=O)O)[C@@H]2CC[C@]1(O)C3 [Steviol, reference compound] |
| 7.23 | CCCCCCCCCCCCCCCC(=O)O [Palmitic C16:0] |
| 7.68 | CCCCCCCC/C=C\CCCCCCCC(=O)O [Oleic C18:1] |
| 8.02 | CCCCCCCCCCCCCCCCCC(=O)O [Stearic C18:0] |
